Consider 29 compounds from patent publication US5177087A, “Cyclic amine compounds and their use” (Takeda Chemical Industries, Ltd., priority 1989, dated 1993).

A short description of assay [1]: Antihypoxic action: survival time of mice in a decompressed desiccator. It is filed as in vivo, Male mice (ICR/Jcl strain). As to conditions: Mus musculus, ip, read-out: survival time of drug-treated group (mean survival time of control group = 100). As for the experimental part: Male mice (ICR/Jcl strain, 5-6 weeks old) were divided into two groups, i.e. a control group and a drug-treated group. A desiccator was decompressed to an internal pressure of 35 mmHg with a vacuum pump and, then, connected to two desiccators housing mice of the two groups, respectively. After an equilibrium was established in internal pressure among the desiccators, the time to the onset of respiratory arrest of each mouse in each group was measured and regarded as survival time. Then, taking the mean survival time in the control group as 100, the survival time of the drug-treated group was expressed in percentage (Table 7). The test drug was administered intraperitoneally 30 minutes before induction of hypoxia. The control group received physiological saline.

The nature of assay [2]: Antiedematous action on the brain: microsphere-induced cerebral edema, water, sodium and ion contents of hemisphere. The assay is classed as in vivo, Male rats (Wistar/Jcl). As to conditions: 72 hours after microsphere infusion. An excerpt: Male rats (Wistar/Jcl, 11 weeks old) underwent cervical incision under ether anesthesia and the pterygopalatine artery and external carotid artery were ligated. After blockade of the common carotid artery bloodstream, a cannula was inserted retrogradely from the external carotid artery and indwelt at the origin of the internal carotid artery. Then, a suspension of carbon microspheres (50±10 μm in diameter) in 20% dextran was infused selectively into the internal carotid artery through the indwelt cannula over a period of about 10 seconds. Seventy-two hours after infusion, the brain was removed and divided into the right and left cerebral hemispheres. Then, the water, sodium and ion contents of each hemisphere were determined. The test drug was administered intraperitoneally 30 minutes before and 5 hours after infusion of the microspheres on the day of microsphere infusion and twice a day, i.e. in the morning and in the afternoon, thereafter till the end of the experiment. 5% Gum arabic was used in the control group.

In a further assay the target is T1, cholinesterase (Rattus norvegicus, UniProt P37136).
T1 construct: the S1 fraction of the cerebral cortex homogenate from male Wistar rats was used as cholinesterase source; from tissue; host or cells: cerebral cortex homogenate, S1 fraction, male Wistar rats
T1 sequence (P37136 32-614): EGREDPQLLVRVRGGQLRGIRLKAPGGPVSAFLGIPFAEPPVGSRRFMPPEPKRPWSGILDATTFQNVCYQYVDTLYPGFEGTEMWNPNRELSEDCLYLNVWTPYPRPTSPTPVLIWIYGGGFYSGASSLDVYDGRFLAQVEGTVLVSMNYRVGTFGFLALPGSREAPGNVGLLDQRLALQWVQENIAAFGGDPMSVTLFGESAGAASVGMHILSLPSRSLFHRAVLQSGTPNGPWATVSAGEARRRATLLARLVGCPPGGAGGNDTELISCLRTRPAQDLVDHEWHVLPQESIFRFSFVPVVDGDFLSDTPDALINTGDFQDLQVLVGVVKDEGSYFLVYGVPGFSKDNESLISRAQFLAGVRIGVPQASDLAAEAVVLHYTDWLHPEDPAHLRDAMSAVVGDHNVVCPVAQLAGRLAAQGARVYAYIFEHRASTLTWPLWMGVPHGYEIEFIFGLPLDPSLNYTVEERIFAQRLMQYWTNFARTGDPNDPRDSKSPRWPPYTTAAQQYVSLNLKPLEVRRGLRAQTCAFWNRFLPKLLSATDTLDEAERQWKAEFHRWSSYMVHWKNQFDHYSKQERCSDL
Nature of the assay: Anti-cholinesterase action, (acetyl-[^3 H])-acetylcholine as substrate, S1 fraction of cerebral cortex homogenate. It is filed as biochemical, male Wistar rats. As for the experimental part:
The anti-cholinesterase action of the compound of the present invention was investigated using (acetyl-[^3 H])-acetylcholine. Thus, the S1 fraction of the cerebral cortex homogenate from male Wistar rats was used as cholinesterase source, and (acetyl-[^3 H])-acetylcholine as the substrate and the compound of the invention as the test compound were incubated for 30 minutes and after termination of the reaction, a toluene scintillator was added. The mixture was shaken and the radioactivity of the reaction product [^3 H]-acetic acid in the toluene layer was measured with a scintillation counter to estimate the cholinesterase-antagonizing activity.
The anticholinesterase activity of the test compound was expressed as 50% inhibitory concentration (IC50) in Table 9.

Assay [3] in a line: Action on scopolamine-induced impairment of spontaneous alternation in a T-maze. It is filed as in vivo, rats. As for the experimental part: The nootropic effect of the compound of the invention (Example 59) was investigated using spontaneous alternation in rats (Murray and Fibiger, Behav Neurosci. 100, 23-32, 1986) as an indicator. Nine-week-old rats were used. Feeding was restricted so that the body weight of the rat would be reduced to about 80% of free-feeding weight. Then, training was started. Training consisted of 11 trials. In the first trial one food pellet (45 mg) was placed in each of food receptacles set at ends of two arms and the rat was allowed to select either arm freely for the food reward. In the subsequent 10 trials from the second to the eleventh trial, the diet was placed only on the arm opposite to the arm which had been selected immediately before. The selection of the arm where the diet was placed was regarded as a correct response. In each acquistion trial, the rat was first placed in a home compartment and 15 seconds later the door was opened to let the animal explore freely and select either arm. The rat was brought back to the home compartment after it had ingested the pellet in the case of a correct response or after it had reached the food receptacle in the case of an incorrect response. In the experiment, the rats which had attained the correct response rate of not less than 80% were used. Scopolamine bromide was administered intraperitoneally in a dose of 0.3 mg/kg 30 minutes before the beginning of the experiment and the test compound (Example 59) was administered orally 30 minutes before scopolamine administration. The results of the experiment are expressed in correct response rate. For the analysis of significant difference between the groups, Student's t-test (two-tailed) was used. In the first experiment, groups of 7-9 rats were used, and in the second experiment, groups of 12-14 rats were used. The results are shown in Table 10 (the results in the second experiment are shown in the parentheses).

The mark [4] stands for this setting: 10 mg/kg, i.p., 30 minutes before hypoxia, 35 mmHg.
Setting [5] is: 30 minutes incubation, read-out: Anticholinesterase activity IC50.

Counter-ions that a name gives are not always drawn. Like-named read-outs stand apart in the source and are kept apart here.

`O=C(c1ccc(N2CCN(Cc3ccccc3)CC2)cc1)C1CCNCC1` [Example 11-4]: in assay [1], the response vs control in vivo at 0.1 mg/kg came to 116 ± 11%, the response vs control in vivo at 0.5 mg/kg turned out to be 148 ± 17% and the response vs control in vivo at 2 mg/kg amounted to 288 ± 82%. The response vs control in vivo at 10 mg/kg in assay [1] (setting [4]) worked out at 216 ± 53%.
On to `OC(c1ccncc1)c1ccc(N2CCCCC2)cc1` (stereo not drawn) [Example 12, 4-[(α-Hydroxy-4-piperidino)benzyl]pyridine dihydrochloride], for which, in assay [1], the response vs control in vivo at 0.1 mg/kg was found to be 84 ± 4%, the response vs control in vivo at 0.5 mg/kg came to 152 ± 19% and the response vs control in vivo at 2 mg/kg is 163 ± 23%. Also, the response vs control in vivo at 10 mg/kg in assay [1] (setting [4]) is 132 ± 8%.
With `OC(c1ccc(N2CCC(Cc3ccccc3)CC2)cc1)C1CCNCC1` (centres unmarked) [Example 14-3], in assay [1], the response vs control in vivo at 0.1 mg/kg stood at 108 ± 9%, the response vs control in vivo at 0.5 mg/kg is 162 ± 24% and the response vs control in vivo at 2 mg/kg turned out to be 137 ± 11%. Further, the response vs control in vivo at 10 mg/kg in assay [1] (setting [4]) was found to be 398 ± 95%.
`OC(c1ccc(N2CCN(Cc3ccccc3)CC2)cc1)C1CCNCC1` (centres unmarked) [Example 14-4]: in assay [1], the response vs control in vivo at 0.5 mg/kg came out at 152 ± 28% and the response vs control in vivo at 2 mg/kg stood at 188 ± 22%. The response vs control in vivo at 10 mg/kg in assay [1] (setting [4]) was determined as 197 ± 32%.
`OC(c1ccc(N2CCCCC2)cc1N1CCCCC1)C1CCNCC1` (centres unmarked) [Example 14-6]: in assay [1], the response vs control in vivo at 0.1 mg/kg was determined as 120 ± 7%, the response vs control in vivo at 0.5 mg/kg came out at 154 ± 17% and the response vs control in vivo at 2 mg/kg was 143 ± 17%. Besides, the response vs control in vivo at 10 mg/kg in assay [1] (setting [4]) worked out at 123 ± 6%. This compound came in with a Water in assay [2] (50 mg × 7, i.p., control group 80.35 ± 0.22) of 79.36 ± 0.13%. Moreover, the Na in assay [2] (50 mg × 7, i.p., control group 305 ± 19) came out at 256 ± 5 mEq/kg. Besides, in assay [2] (50 mg × 7, i.p., control group 488 ± 11), the K was 506 ± 5 mEq/kg.
Turning to `CN(C)c1ccc(CC2CCNCC2)cc1` [Example 20, 4-(4-Dimethylaminobenzyl)piperidine dihydrochloride], in assay [1], the response vs control in vivo at 0.5 mg/kg worked out at 99 ± 5% and the response vs control in vivo at 2 mg/kg was found to be 118 ± 5%. Besides, the Water in assay [2] (5 mg × 7, i.p., control group 80.59 ± 0.19) was determined as 79.80 ± 0.19%. This compound also gave a Na in assay [2] (5 mg × 7, i.p., control group 306 ± 10) of 268 ± 8 mEq/kg. In assay [2] (5 mg × 7, i.p., control group 488 ± 2), this compound yielded a K of 499 ± 5 mEq/kg.
Turning to `c1cc(N2CCCCC2)ccc1CC1CCNCC1` [Example 21-1, 4-(4-piperidinobenzyl)piperidine dihydrochloride], in assay [1], the response vs control in vivo at 0.1 mg/kg amounted to 133 ± 11%, the response vs control in vivo at 0.5 mg/kg came to 155 ± 21%, the response vs control in vivo at 2 mg/kg amounted to 231 ± 59% and the response vs control in vivo at 10 mg/kg came to 277 ± 55%.
In the case of `c1ccc(CC2CCN(c3ccc(CC4CCNCC4)cc3)CC2)cc1` [Example 21-2], in assay [1], the response vs control in vivo at 0.1 mg/kg stood at 165 ± 26%, the response vs control in vivo at 0.5 mg/kg stood at 147 ± 14% and the response vs control in vivo at 2 mg/kg stood at 147 ± 8%. The response vs control in vivo at 10 mg/kg in assay [1] (setting [4]) came to 280 ± 59%.
As for `O=C(CCC1CCN(Cc2ccccc2)CC1)c1ccc(N2CCCC2)cc1` [Example 59, 1-Benzyl-4-[2-(4-pyrrolidinobenzoyl)ethyl]piperidine], the midpoint of inhibition against cholinesterase (Anticholinesterase activity IC50, 30 minutes incubation), the IC50, lay at 27 nM. Besides, the “Mean correct response rate ± standard error” value in assay [3] (3 mg/kg p.o. + scopolamine 0.3 mg/kg i.p., first experiment, scopolamine control 53.8 ± 4.6) amounted to 61.4 ± 7.1. Further, the “ameliorative effect on correct response rate” value in assay [3] (10 mg/kg) is recorded as “significant ameliorative effect”. Also, the “antagonism of the decrease of correct response rate by scopolamine” value in assay [3] (3 and 10 mg/kg p.o.) is “dose-dependently antagonized”.
As to `O=C(CCC1CCN(Cc2ccccc2)CC1)c1ccc(N2CCCCC2)cc1` [Example 60-1], the IC50 at cholinesterase (setting [5]) stood at 52 nM.
`O=C(CCC1CCN(Cc2ccccc2)CC1)c1ccc(N2CCCCCC2)cc1` [Example 60-2]: the IC50 on cholinesterase (setting [5]) was 250 nM.
For the compound `CN(C)c1ccc(C(=O)CCC2CCN(Cc3ccccc3)CC2)cc1` [Example 60-3], at cholinesterase (setting [5]), the IC50 was 53 nM.
With `CCNc1ccc(C(=O)CCC2CCN(Cc3ccccc3)CC2)cc1` [Example 60-4], the IC50 at cholinesterase (setting [5]) came out at 98 nM.
For the compound `O=C(CCC1CCN(Cc2ccccc2)CC1)c1ccc(N2CCOCC2)cc1` [Example 60-5], on cholinesterase (setting [5]), the IC50 came to 10 nM.
Consider `O=C(CCC1CCN(Cc2ccccc2)CC1)c1ccc(-n2ccnc2)cc1` [Example 60-6], for which the IC50 at cholinesterase (setting [5]) amounted to 20 nM.
`CN1CCN(c2ccc(C(=O)CCC3CCN(Cc4ccccc4)CC3)cc2)CC1` [Example 60-7]: the IC50 on cholinesterase (setting [5]) was determined as 8.4 nM.
Same read-out and setting: for `CNc1ccc(C(=O)CCC2CCN(Cc3ccccc3)CC2)cc1` [Example 60-8] the value was 150 nM; for `O=C(CCC1CCN(Cc2ccccc2)CC1)c1ccc(N2CCCC2)cc1` [Example 60-10], 40 nM.
On to `O=C(CCC1CCN(Cc2ccccc2)CC1)c1ccc(N2CCCC2)cc1` [Example 60-11], for which the IC50 on cholinesterase (setting [5]) is 32 nM.
As for `O=C(CCC1CCN(Cc2ccccc2)CC1)c1ccc(N2CCCC2)cc1` [Example 60-12], the IC50 on cholinesterase (setting [5]) came to 28 nM.
On to `CN(C)c1ccc(C(=O)CCC2CCN(Cc3ccccc3)CC2)cc1` [Example 60-13], for which, at cholinesterase (setting [5]), the IC50 came to 48 nM.
Same read-out and setting: for `CN1CCN(c2ccc(C(=O)CCC3CCN(Cc4ccccc4)CC3)cc2)CC1` [Example 60-14] the value was 6.8 nM; for `O=C(CCC1CCN(Cc2ccccc2)CC1)c1ccc(N2CCCCC2)cc1` [Example 60-15], 61 nM; for `O=C(CCC1CCN(Cc2ccccc2)CC1)c1ccc(N2CCNCC2)cc1` [Example 60-17], 6.1 nM.
`CC(=O)N1CCN(c2ccc(C(=O)CCC3CCN(Cc4ccccc4)CC3)cc2)CC1` [Example 60-19]: the half-maximal inhibitory concentration (IC50) on cholinesterase (setting [5]) came to 2.9 nM.
Still for that read-out and setting: for `O=C(CCC1CCN(Cc2ccccc2)CC1)c1ccc(N2CCOCC2)cc1` [Example 60-20] the value was 15 nM.
Take `O=C(CCC1CCN(Cc2ccccc2)CC1)c1ccc(N2CCN(C(c3ccccc3)c3ccccc3)CC2)cc1` [Example 60-21]: the IC50 at cholinesterase (setting [5]) amounted to 710 nM.
With `O=C(CCC1CCN(Cc2ccccc2)CC1)c1ccc(NCCN2CCCCC2)cc1` [Example 60-22], the IC50 at cholinesterase (setting [5]) came out at 17 nM.
As to `O=C(CCCC1CCN(Cc2ccccc2)CC1)c1ccc(N2CCCC2)cc1` [Example 69, 1-Benzyl-4-[3-(4-pyrrolidinobenzoyl)propyl]piperidine fumarate], the IC50 on cholinesterase (setting [5]) is 220 nM.
